# Measured values: patent publication US20260234159A1, “SMALL MOLECULE TREATMENT OF FATTY LIVER DISEASE AND HCC” (SCANDIEDGE THERAPEUTICS AB, priority 2023, published 2026)
# pIC50: −log10 of the molar value. Like-named read-outs stand apart in the source and are kept apart here.
# Tests used:
# [1] = target: T1, JNK1 (Homo sapiens, UniProt P45983); assay: JNK enzyme activity assay, purified JNK1; format: biochemical; conditions: 10 μM, Phospho-c Jun (Ser 73) by western blot
# T1 construct: purchased Thermo Fisher PV3319
# T1 sequence (P45983 whole entry): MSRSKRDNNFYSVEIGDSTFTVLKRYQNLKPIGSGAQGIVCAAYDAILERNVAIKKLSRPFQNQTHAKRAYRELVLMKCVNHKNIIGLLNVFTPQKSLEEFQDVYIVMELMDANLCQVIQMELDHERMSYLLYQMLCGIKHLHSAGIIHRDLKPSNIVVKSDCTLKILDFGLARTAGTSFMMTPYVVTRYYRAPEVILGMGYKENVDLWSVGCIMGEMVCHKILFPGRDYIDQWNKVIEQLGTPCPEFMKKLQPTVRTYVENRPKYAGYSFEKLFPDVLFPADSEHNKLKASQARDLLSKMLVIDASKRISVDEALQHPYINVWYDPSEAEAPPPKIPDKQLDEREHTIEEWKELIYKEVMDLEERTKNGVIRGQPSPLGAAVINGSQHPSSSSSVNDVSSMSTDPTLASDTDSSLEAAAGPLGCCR
# Method: (§1) JNK activity was measured with JNK Activity Assay Kit (ab273417, Abcam). JNK activity assay was performed with purified JNK, JNK1 (PV3319, Thermo Fisher), JNK2 (PV3620, Thermo Fisher) JNK3(PV4563, Thermo Fisher). 0.3 μg of each JNK purified protein were incubated with c-Jun Protein/ATP in Kinase Assay Buffer for 1 hr followed by manufacturer's instruction with 10 μM small molecules. Catalysed substrate Phospho-c Jun (Ser 73) was detected by western blot analysis. Western blot analysis performed with JNK Activity Assay kit supplied anti-Phospho-cJun (Ser 73) Specific Antibody at 1:10,000 for overnight and Goat Anti-Rabbit HRP (ab205718, abeam) at 1:10,000 for 1 hr incubation as primary and secondary antibody.
# [2] = system: JNK protein; assay: Cellular thermal shift assay (CETSA), protein-ligand binding; set-up: species or system human; conditions: 10 μM, 60° C.; versus JNK-IN-5A
# Method: HepG2 cells were trypsinized and calculated at 1×10^6 cells into 1.5 ml micro centrifuge tube with 100 μl cell culture media. Cells were incubated in a CO2 incubator at 37° C. for 1 hr with 10 μM of each target drug. Drug treated cells were heated at 60° C. for 3 min using a heat plate. Heated cells were lysed with Native lysis buffer (ab156035, Abcam). Thermal shifted JNK proteins were detected with western blot analysis using JNK1+2+3 antibody (Ab179461, Abcam) and band intensity was analysed with ImageJ program.
# [3] = system: HepG2 cells; assay: Triglyceride (TAG) measurement assay, one week steatosis model; format: cell-based, human; conditions: Homo sapiens
# Method: (§2) HepG2 wild type cells were purchased from genome engineering company Synthego. Cells were maintained with Roswell Park Memorial Institute growth media, RPMI, 1640 (R2405, Sigma-Aldrich) and supplemented with 10% fetal bovine serum (FBS, F7524, Sigma-Aldrich), 1% penicillin-streptomycin (P/S, P4333, Sigma-Aldrich). Steatosis induction media was prepared as high glucose Dulbecco's Modified Eagle Media (DMEM, D0819, Sigma-Aldrich) with 10% FBS, 1% P/S media supplemented with 10 μg/ml insulin (I9278, Sigma-Aldrich), and 10 μM T0901317 (T2320, Sigma-Aldrich). HepG2 cells were seeded 6×10^4 cells per well for 96-well plate and 1×10^6 cells per well for 6-well plate. HepG2 cells were incubated with steatosis induce media (SM) for one week by 3 day+2 day+2 day with total three times media exchange.
# HepG2 cells were seeded at 6×10^4 cells per well into 96 well plate and induced steatosis for one week with 10 μM of target drugs. After steatosis induction, cells were washed with 200 μl of phosphate buffered saline (PBS) and triglyceride contents was measured by Triglyceride Assay Kit—Quantification (ab65336, Abcam) following manufacturer's instruction. Optical density (O.D) values were detected with microplate reader at 570 nm (Hidex Sense Beta Plus).
# (§3) HepG2 cells were seeded at 60,000 cells per well in 96 well plate. Using steatosis induce media, the cells were treated with 10 μM of target drugs for one week. The media was changed 3 times at day 0, day 3 and day 5. TAG assay was performed using MAK266-1KT SDS Triglyceride Quantification Colorimetric kit and cell viability analysis was performed using MTT assay.
# [4] = MTT cell viability after one week steatosis (ranking of target molecules); format: cell-based, human; conditions: human, HepG2 cells (wild type); HepG2, 10 μM, one week steatosis induce media, MTT; Control 100.00
# Method: as §2, §3
# [5] = target: T2, JNK2 (Homo sapiens, UniProt P45984); assay: JNK enzyme activity assay, purified JNK2; format: biochemical; conditions: 10 μM, Phospho-c Jun (Ser 73) by western blot
# T2 construct: purchased Thermo Fisher PV3620
# T2 sequence (P45984 whole entry): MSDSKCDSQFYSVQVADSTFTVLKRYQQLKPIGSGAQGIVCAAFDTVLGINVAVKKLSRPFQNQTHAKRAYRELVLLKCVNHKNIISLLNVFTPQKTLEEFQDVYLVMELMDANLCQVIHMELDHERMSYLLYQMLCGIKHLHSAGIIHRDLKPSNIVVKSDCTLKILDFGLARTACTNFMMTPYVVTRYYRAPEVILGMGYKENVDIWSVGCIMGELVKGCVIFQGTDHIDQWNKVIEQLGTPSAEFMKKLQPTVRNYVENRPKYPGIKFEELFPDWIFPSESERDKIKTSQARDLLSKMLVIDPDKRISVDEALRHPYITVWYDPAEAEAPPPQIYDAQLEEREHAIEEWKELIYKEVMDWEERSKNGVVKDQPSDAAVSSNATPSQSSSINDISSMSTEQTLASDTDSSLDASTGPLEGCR
# Method: as §1
# [6] = target: T3, JNK3 (Homo sapiens, UniProt P53779); assay: JNK enzyme activity assay, purified JNK3; format: biochemical; conditions: 10 μM; greatest inhibition was obtained for JNK3
# T3 construct: purchased Thermo Fisher PV4563
# T3 sequence (P53779 whole entry): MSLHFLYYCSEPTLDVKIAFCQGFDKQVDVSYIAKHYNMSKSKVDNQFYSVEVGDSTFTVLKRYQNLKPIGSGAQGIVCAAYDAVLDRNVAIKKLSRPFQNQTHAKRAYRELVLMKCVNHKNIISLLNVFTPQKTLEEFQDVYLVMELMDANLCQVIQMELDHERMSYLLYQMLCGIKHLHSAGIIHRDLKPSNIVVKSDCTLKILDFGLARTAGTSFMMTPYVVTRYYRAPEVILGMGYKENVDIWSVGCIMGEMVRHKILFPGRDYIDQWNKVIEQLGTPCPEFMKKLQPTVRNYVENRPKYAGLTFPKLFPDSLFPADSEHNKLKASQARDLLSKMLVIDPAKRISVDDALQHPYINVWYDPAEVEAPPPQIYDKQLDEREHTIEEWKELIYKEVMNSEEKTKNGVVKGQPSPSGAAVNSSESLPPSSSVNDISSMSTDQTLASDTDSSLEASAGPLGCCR
# Method: as §1
# [7] = system: HepG2 cells; assay: Invasion assay (transwell); format: cell-based, human; conditions: Homo sapiens, HepG2, 24 hr, read-out: invasiveness reduced by
# Method: The effects of the treatment with the compounds on the invasion ability of HepG2 and Huh7 cells were determined by 8 μm pores transwell chamber (Corning™ 3464, USA).
# (§4) Transwell membrane was coated with 100 μl collagen (Sigma C3867, USA) diluted with PBS to a concentration of 1 mg/ml. After overnight incubation at 4° C., the collagen solution was discarded and the membrane was washed with PBS. 100,000 cells in 200 μl serum free media together with the tested compounds were added into the upper well and 600 μl of 10% FBS supplemented growth media was added to the lower well as an invasive attractant in a 24-well plate. Cells were incubated at 37° C. in a CO2 incubator for one day. The cells were fixed with 3.7% formaldehyde for 30 minutes at room temperature and washed with PBS twice. The cells were stained with 1% crystal violet in PBS for 20 minutes and residual cells in inner membrane were swabbed gently with a cotton swab. Invaded cells located at the outer membrane were imaged by ZOE Fluorescent Cell Imager (Bio-Rad, USA) and counted by image. For wound healing assay, 100,000 cells per well were seeded into 24-well plates and grown until 95-100% confluent. Linear wound was created by using a 200 μl pipette tip. Image was recorded at the time point of day 0 until control group wound closure with 1 μM of compounds by ZOE Fluorescent Cell Imager (Bio-Rad, USA). Wound areas were measured using ImageJ software.
# [8] = system: HepG2 cells; assay: MTT cell viability after one week steatosis (ranking of target molecules); format: cell-based, human
# Method: as §2, §3
# [9] = system: HepG2 cells; assay: Mitochondrial membrane potential assay (TMRE); format: cell-based, human; conditions: 10 μM, one day
# Method: HepG2 cells were seeded into a 6-well plate at 400,000 cells per well. After treatment with the compounds at desired concentration and time, TMRE (ab113852, abcam), Autophagy (ab139484, abcam), ROS (ab113851, abcam), and Lipid peroxidation (ab243377, abcam) assay were performed according to manufacturer's instructions. Fluorescence images were taken using ZOE™ Fluorescent Cell Imager (Biorad) and ROI of fluorescence intensity was measured and calculated by Image J. For microplate reader florescence assay, 40,000 of HepG2 cells were seeded into a 96-well plate and triplicated. GFP (Ex480 nm, Em530 nm) and RFP (Ex549 nm, Em574 nm) were measured using a microplate reader (Hidex Sense Meta Plus).
# [10] = MTT cell viability / IC50 in growth media; format: cell-based, human; conditions: human, HepG2 cells; 10 μM, treatment for 2 days
# Method: (§5) The cytotoxic effects of the synthesized drugs on the HepG2 cells were tested by MTT (Thiazolyl Blue Tetrazolium Bromide) method. HepG2 cells were seeded 2×10^4 cells per well in 96-well plate in 200 μL growth media. […] After the incubation period, 5 mg/ml MTT (M2128, Sigma-Aldrich) solution in PBS (10 μL) was added to each well. After 1 hr, the MTT solution and all media were removed from the wells. 100 μl of DMSO was added and mixed to dissolve the formazan crystals. Cell viability was analysed by measuring the absorbance of the dissolved formazan in a microplate reader at a wavelength of 570 nm with microplate reader (Hidex Sense Beta Plus).
# (§6) HepG2 cells were maintained and used with RPMI 1640 (R2405, Sigma-Aldrich) supplemented with 10% fetal bovine serum (F7524, Sigma-Aldrich), 1% P/S (P4333, Sigma-Aldrich). 20,000 cells per well of HepG2 cells were seeded into a 96-well plate and triplicated for MTT assay and LDH assay. Cell viability was measured by MTT assay (M6494, ThermoFisher) and cytotoxicity was measured by LDH assay kit (ab65393, abcam) by following manufacturer's instructions. Optical density (O.D) was numerated using a microplate reader (Hidex Sense Meta Plus).
# [11] = system: HepG2 cells; assay: MTT cell viability / IC50 in growth media; format: cell-based, human; conditions: Homo sapiens, 48 h; HepG2, treatment for 2 days, 30 μM to 30 nM
# Method: as §5, §6
# [12] = system: HepG2 cells; assay: FACs analysis with PI staining (cell cycle); format: cell-based, human; conditions: PI FACs, 10 μM, 2 days
# Method: 400,000 HepG2 cells were seeded in a 6-well plated and treated with 10 μM of the compounds for 2 days. Cells were fixed with 70% ethanol and stained with 50 μg/ml PI. Prepared cells were analysed using BD FACS Canto II Flow Cytometry system at PE-A channel 10,000 cells per group. The data was histogram plotted with BD FACSDiva 9.0.
# [13] = system: JNK1/2/3; assay: Western blot, JNK1/2/3 P54 and p46 isoforms; format: cell-based, human; conditions: 10 μM, 2 days
# Method: HepG2 cells were seeded into a 6-well plate at 400,000 cells per well. After treatment with 10 μM of JNK-IN-5A and its derivatives for two days, lysates were harvested with CelLytic M (C2978, Sigma-Aldrich). […] SDS PAGE were performed using Mini-PROTEAN® TGX™ Precast Gels (Bio-Rad) and transferred using Trans-Blot® Turbo™ Transfer System (Bio-Rad). […] ImageQuantTMLAS 500 (29-0050-63, GE) was used to detect protein bands.
# [14] = system: HepG2 cells; assay: Wound healing assay; format: cell-based; conditions: Homo sapiens, HepG2, 96 h, day 4, untreated 100% wound closure, read-out: wound healing delayed by
# Method: as §4
# [15] = 168 h, HepG2, 10 μM, one week steatosis induce media, Control 100.00, read-out: TAG (%)
# [16] = HepG2, 168 h, ratio between TAG content and cell viability, Control 100.0, read-out: TAG/cell viability
SMILES,JNK1 activity [1],binding to the JNK protein [2],"activity at 10 µM [3, 15] [%]","activity at 10 µM [3, 16] [%]","viability at 1 week, 10 µM [4] [%]",JNK2 activity [5],JNK3 activity [6],inhibition at 1 µM [7] [%],cell viability of HepG2 [8],mitochondrial membrane potential [9],"viability at 2 days, 10 µM [10] [%]",pIC50 [11],Cell population G0/G1 [12],Cell population G2/M [12],Cell population S [12],JNK1/2/3 p46 expression [13],inhibition at 1 µM [14] [%]
CN(C)C(=O)N1CCc2c(sc(NC(=O)c3cccc4ccccc34)c2C#N)C1 [PKL-A117],inhibited,better binding,12.8,31.4,40.6,inhibited,inhibited,,,,,,,,,,
N#Cc1c(NC(=O)c2cccc3ccccc23)sc2c1CCN(C(=O)Nc1ccccc1F)C2 [PKL-A119],inhibited,better binding,12.5,31.2,40.1,inhibited,inhibited,,,,,,,,,,
CC(C)(C)OC(=O)N1CCc2c(sc(NC(=O)c3cccc4ccccc34)c2C#N)C1 [PKL-A131],inhibited,better binding,13.1,29.3,44.8,inhibited,inhibited,,,,,,,,,,
COc1ccc(C(=O)N2CCc3c(sc(NC(=O)c4cccc5ccccc45)c3C#N)C2)cc1OC [PKL-A132],inhibited,better binding,12.8,31.9,40.3,inhibited,inhibited,,,,,,,,,,
N#Cc1c(NC(=O)c2cccc3ccccc23)sc2c1CCN(C(=O)Nc1ccccc1Cl)C2 [PKL-A156],,,13.5,50.8,26.6,,,14,exceptionally low cell viability,significantly decreased,53.7,4.80,30.1,60.8,2.3,not significantly altered,26.2
N#Cc1c(NC(=O)c2cccc3ccccc23)sc2c1CCN(C(=O)Nc1ccccc1C(F)(F)F)C2 [PKL-A158],,,8.35,,9.59,,,20.8,exceptionally low cell viability,significantly decreased,51.9,5.12,31.6,60.3,3.5,not significantly altered,39.5
